Patent US5602277A, “Substituted benzene derivatives useful as neuraminidase inhibitors” (priority 1995, dated 1997)
Counter-ions that a name gives are not always drawn. Like-named read-outs stand apart in the source and are kept apart here.

How the values were obtained:
[1] = tested on: influenza virus neuraminidase; type: biochemical; conditions: substrate 75 μM, pH 6.5, 5 min at 37° C.
[2] = cited from earlier work
[3] = tested on: HA; conditions: cited from earlier work

Compound: 3-[(Aminoiminomethyl)amino]-4-[(methylamino)carbonyl]benzoic acid hydrochloride, complex with water and methanol (4:4:4:1 and 5:5:5:1) [Example 53]
- IC50 [1]: 0.005 mM

Compound: CC(=O)Nc1ccc(C(=O)O)cc1CC(O)CO (single isomer, unassigned; isomer a) [Example 35, 4-Acetylamino-3-(2',3'-dihydroxypropyl)benzoic acid, solvate with water [5:1] (Isomer A)]
- % Inhibition at 7 nM [1]: 25%
- IC50 [1]: 20 mM

Compound: CC(=O)Nc1ccc(C(=O)O)cc1CC(O)CO (single isomer, unassigned; isomer b) [Example 36, 4-Acetylamino-3-(2',3'-dihydroxypropyl)benzoic acid, solvate with water [4:3](Isomer B)]
- % Inhibition at 7 nM [1]: 35%

Compound: CC(=O)N[C@H]1[C@H]([C@H](O)[C@H](O)CO)OC(C(=O)O)=C[C@@H]1O [DANA, 2-deoxy-2,3-didehydro-N-acetylneuraminic acid]
- activity in vivo [2]: inactive
- inhibition of HA in vitro [3]: inhibit

Compound: N=C(N)Nc1ccccc1 [Example 1, Phenylguanidine carbonate hydrate (2:1:1)]
- % Inhibition at 7 nM [1]: 44%

Compound: N=C(N)NC(=N)Nc1ccccc1 [Example 3, 1-Phenylbiguanide]
- % Inhibition at 7 nM [1]: 75%
- IC50 [1]: 5.5 mM

Compound: CC(=O)Nc1ccc(C(=O)O)cc1 [Example 4, 4-Acetylaminobenzoic acid]
- % Inhibition at 7 nM [1]: 39%

Compound: CC(=O)Nc1ccc(S(=O)(=O)O)cc1 [Example 6, 4-Acetylaminobenzenesulfonic acid hydrate (4:1)]
- % Inhibition at 7 nM [1]: 30%

Compound: CC(=O)Nc1ccc(P(=O)(O)O)cc1 [Example 7, 4-Acetylaminophenylphosphonic acid]
- % Inhibition at 7 nM [1]: 32%

Compound: O=C(O)c1ccc(NC(=O)C(F)(F)F)cc1 [Example 9, 4-(Trifluoroacetamido)benzoic acid]
- % Inhibition ([1]; compound @ 3.3 mM): 56%

Compound: CC(=S)Nc1ccc(C(=O)O)cc1 [Example 10, 4-Thioacetamidobenzoic acid]
- IC50 [1]: 1 mM

Compound: CS(=O)(=O)Nc1ccc(C(=O)O)cc1 [Example 16, 4-[(Methylsulfonyl)amino]benzoic acid]
- % Inhibition at 7 nM [1]: 34%

Compound: N=C(N)Nc1cccc(C(=O)O)c1 [Example 17, 3-Guanidinobenzoic acid hydrochloride (2:1)]
- IC50 [1]: 5 mM

Compound: N#CN=C(N)Nc1cccc(C(=O)O)c1 [Example 18, 3-[Amino(cyanoimino)methyl]aminobenzoic acid hydrate (4:1)]
- % Inhibition at 7 nM [1]: 68%

Compound: N#CNc1cccc(C(=O)O)c1 [Example 21, 3-Cyanoaminobenzoic acid hydrate (5:1)]
- IC50 [1]: 4 mM

Compound: N=C(N)Cc1cccc(C(=O)O)c1 [Example 23, 3-(2-Amino-2-imino)ethylbenzoic acid complex with water (5:1)]
- % Inhibition ([1]; compound @ 3.5 mM): 22%

Compound: CC(=O)Nc1ccc(CC(=O)O)cc1 [Example 26, 4-(Acetamido)phenylacetic acid]
- % Inhibition at 7 nM [1]: 15%

Compound: CNC(=O)c1ccc(C(=O)O)cc1 [Example 27, 4-(Methylaminocarbonyl)benzoic acid]
- % Inhibition at 7 nM [1]: 27%

Compound: CC(=O)Nc1ccc(C(=O)O)cc1CO.[Na+].[OH-] [Example 31, 4-Acetylamino-3-hydroxymethylbenzoic acid, complex with NaOH [5:3]]
- % Inhibition at 7 nM [1]: 31%

Compound: CC(=O)Nc1ccc(C(=O)O)cc1CCO [Example 33, β-(2-N-Acetylamino-5-carboxyphenyl)ethanol]
- % Inhibition at 7 nM [1]: 42%

Compound: CC(=O)Nc1ccc(C(=O)O)cc1N [Example 37, 4-Acetylamino-3-aminobenzoic acid hydrochloride (2:1)]
- % Inhibition at 7 nM [1]: 28%
- IC50 [1]: 14 mM

Compound: CC(C)C(=O)Nc1ccc(C(=O)O)cc1NC(=N)N [Example 40, 3-[(Aminoiminomethyl)amino]-4-(2-methylpropionylamino)benzoic acid hydrate [2:1]]
- IC50 [1]: 1 mM

Compound: CC(=O)Nc1ccc(C(=O)O)cc1C=NO [Example 42, 4-Acetylamino-3-[(hydroxylimino)methyl]benzoic acid hydrate (4:1)]
- IC50 [1]: 5.5 mM

Compound: CS(=O)(=O)Nc1ccc(C(=O)O)cc1NC(=N)N [Example 43, 3-[(Aminoiminomethyl)amino]-4-[(methylsulfonyl)amino]benzoic acid, solvate with water (2:1)]
- IC50 [1]: 0.1 mM

Compound: COc1ccc(C(=O)O)cc1NC(=N)N [Example 46, 3-[(Aminoiminomethyl)amino]-4-methoxybenzoic acid hydrochloride (1:1)]
- % Inhibition at 7 nM [1]: 46%

Compound: N=C(N)Nc1cc(C(=O)O)ccc1O [Example 47, 3-[(Aminoiminomethyl)amino]-4-hydroxybenzoic acid hydrochloride (1:1)]
- % Inhibition at 7 nM [1]: 33%

Compound: N=C(N)Nc1cc(NC(=N)N)cc(C(=O)O)c1 [Example 49, 3,5-Bis-[(aminoiminomethyl)amino]benzoic acid hydrochloride, solvate with ethanol (10:15:2)]
- IC50 [1]: 1.5 mM

Compound: N=C(N)Nc1cc(N)cc(C(=O)O)c1 [Example 50, Sodium 3-amino-5-[(aminoimino)methyl]aminobenzoate hydrate]
- IC50 [1]: 2 mM

Compound: N=C(N)Nc1cc(C=NO)cc(C(=O)O)c1 [Example 51, 3-[(Aminoiminomethyl)amino]-5-[(N-hydroxylimino)methyl]benzoic acid hydrate (4:3)]
- IC50 [1]: 0.8 mM

Compound: CC(C)OC(C)C.CS(=O)(=O)Nc1c(CO)cc(C(=O)O)cc1NC(=N)N [Example 52, 3-(Aminoiminomethyl)amino-5-hydroxymethyl-4-(methylsulfonyl)aminobenzoic acid hydrate complex with diisopropyl ether (10:10:1)]
- IC50 [1]: 2 mM
